Test results: patent US12390472B2 (SUZHOU SINOVENT PHARMACEUTICALS CO., LTD., priority 2018, dated 2025)
Like-named read-outs stand apart in the source and are kept apart here.

Test system: Pfeiffer cells
Assay: Experiment on Pfeiffer cell proliferation (CellTiter-Glo)
Type: cell-based, human
Details: Homo sapiens
Protocol: 90 uL of cells were added to each well of a 96-well plate at 12000 cells/well, and cell-free culture medium was added to blank control wells. The plate was incubated overnight in an incubator at 37° C., 5% CO2 and 100% relative humidity. The compounds were diluted from highest to lowest concentration gradient with DMSO to make stock solutions at 400-fold and 10-fold concentration. 10 μL of 10× compound working solution was added to the cell culture plate, and the total concentration of the compound was detected from 10 μM, 9 concentration points in total, and 3-fold serial dilution was performed. 10 μL of DMSO-cell culture medium mixture solution was added to the vehicle control wells and blank control wells. The final concentration of DMSO was 0.25%. The plate was put back in the incubator for another 7 days of culturing.
The cell culture plate cultured for 7 days was taken out of the incubator, and the suspended cells in the 96-well plate were mixed well by pipetting multiple times. 74 uL of fresh cell culture medium was added to a new 96-well plate, and 16 uL of cell suspension was pipetted from the 96-well plate with cells mixed well by pipetting into the new 96-well plate to bring the total volume to 90 uL. Cells in the new 96-well plate were treated with the compound. The new 96-well plate was put back in the incubator for another 7 days of culturing, and then cell viability was detected directly.
84 μL of cell suspension was taken from the cell culture plate for cell viability detection.
CellTiter-Glo buffer and substrate were thawed and balanced to room temperature. The CellTiter-Glo buffer was added to a bottle of CellTiter-Glo substrate to dissolve the substrate, thereby preparing CellTiter-Glo working solution. The bottle was subjected to slow vortex shaking to completely dissolve the substrate. The cell culture plate was taken out and balanced to room temperature for 30 min. 50 μL of CellTiter-Glo working solution was added to each well. The cell plate was wrapped with aluminum foil to keep out of light. The plate was shaken on an orbital shaker for 2 min to induce cell lysis. The plate was placed at room temperature for 10 min to stabilize the luminescence signals. The luminescence signals were detected on 2104 En Vision plate reader.
Inhibition rates of compounds at different concentrations were calculated in Excel, followed by plotting the inhibition curves and calculating relevant parameters including minimum (%), maximum (%), and absolute IC50 using GraphPad Prism software.

For `CCN(c1cc(O[C@H]2C[C@H](N3C[C@@H](C)O[C@@H](C)C3)C2)cc(C(=O)NCc2c(C)cc(C)[nH]c2=O)c1C)C1CCC(F)(F)CC1` [Example 45, 3-((4,4-difluorocyclohexyl)(ethyl)amino)-N-((4,6-dimethyl-2-oxo-1,2-dihydropyridin-3-yl)methyl)-5-(trans-3-(cis-2,6-dimethylmorpholinyl)cyclobutoxy)-2-methylbenzamide], the IC50 (168 h, Day 7, read-out: IC50 Pfeiffer proliferation Day 7) was 69 nM and the IC50 (336 h, Day 14, read-out: IC50 Pfeiffer proliferation Day 14) was 9.7 nM.
